Values after ≈ are worked out from the molar mass of the structure shown.
Experiments:
[1] = tested on: TBE cells (ras-transformed human bronchial epithelial cells); test: Selective cytotoxicity, ras-transformed cells (cell count); format: cell-based
[2] = tested on: NHBE cells (Normal human bronchial epithelial cells); test: Selective cytotoxicity, normal cells (cell count); format: cell-based
[3] = tested on: ras-transformed human bronchial epithelial cells (TBE) tumor; test: In vivo antitumor activity, TBE cells implanted in athymic mice; design: species or system athymic mice (human tumor cells); conditions: 25 mg/kg i.p., 4.0 × 10^6 cells/mouse; for Number of Animals with Tumor: five mice
Protocol: The experiments were carried out at Purdue University athymic mouse laboratory. Athymic mice were purchased from and maintained at the athymic mouse laboratory under […]. Tumor cells (TBE) were obtained from normal human bronchial epithelial cells transfected with plasmic H1 carrying v-Harvey-ras (H-ras) oncogene via protoplast fusion (G. H. Yoakum, J. F. Lechner, E. W. Gabrielson, B. E. Korba, L. Malan-Shibley, J. C. Willey, M. G. Valerio, A. M. Shamsuddin, B. F. Trump and C. C. Harris, Science 227, 1174, 1985. T. C. K. Chan, C.-j. Chang, N. M. Koonchanok and R.L. Geahlen, Biochem. Biophys. Res. Commun., 193, 1152, 1993. The TBE cells were implanted subcutaneously on day 0 of the experiment. Each test group consists of five mice. The compounds tested were dissolved in a saline solution or a saline solution containing 5% of dimethylsulfoxide and 10% cremphor EL (Sigma Chemical Company, St. Louis, Mo.), and were administered intraperitoneously starting on day 2. The solution was administered every four days for a total of four treatments. Tumor volumes were measured every week. The antitumor activity was measured as % of growth inhibition, which is defined by the percentage of the median tumor volume reduction per week of the treated mice divided by the median tumor volume per week of the controlled mice (Tables 9 and 10).

[4] = tested on: IGROV-1 ovarian cancer cells; test: NCI human tumor cell line panel growth inhibition; format: cell-based
UACC-257 melanoma cells = test: NCI human tumor cell line panel growth inhibition; format: cell-based
UACC-62 melanoma cells = test: NCI human tumor cell line panel growth inhibition; format: cell-based
TK-10 renal cancer cells = test: NCI human tumor cell line panel growth inhibition; format: cell-based
[5] = tested on: LXPL-529 lung cancer cells; test: NCI human tumor cell line panel growth inhibition; format: cell-based
U251 CNS cancer cells = test: NCI human tumor cell line panel growth inhibition; format: cell-based
[6] = tested on: NCI-H460 lung cancer cells; test: NCI human tumor cell line panel growth inhibition; format: cell-based
A-498 renal cancer cells = test: NCI human tumor cell line panel growth inhibition; format: cell-based
SF-295 CNS cancer cells = test: NCI human tumor cell line panel growth inhibition; format: cell-based; conditions: read-out: Log10 GI50 (converted)
[7] = tested on: COLO-205 colon cancer cells; test: NCI human tumor cell line panel growth inhibition; format: cell-based; conditions: Homo sapiens; COLO-205, colon cancer; read-out: Log10 GI50 (converted)
[8] = tested on: HCC-2998 colon cancer cells; test: NCI human tumor cell line panel growth inhibition; format: cell-based; conditions: Homo sapiens, read-out: Log10 GI50 (converted)
HOP-18 lung cancer cells = test: NCI human tumor cell line panel growth inhibition; format: cell-based; conditions: Homo sapiens, read-out: Log10 GI50 (converted)
SNB-19 CNS cancer cells = test: NCI human tumor cell line panel growth inhibition; format: cell-based; conditions: Homo sapiens, read-out: Log10 GI50 (converted)
[9] = tested on: NCI-H322M lung cancer cells; test: NCI human tumor cell line panel growth inhibition; format: cell-based; conditions: Homo sapiens, read-out: Log10 GI50 (converted)
[10] = tested on: CAKI-1 renal cancer cells; test: NCI human tumor cell line panel growth inhibition; format: cell-based; conditions: CAKI-1, renal cancer
[11] = tested on: KM20L2 colon cancer cells; test: NCI human tumor cell line panel growth inhibition; format: cell-based
[12] = tested on: NCI-H226 lung cancer cells; test: NCI human tumor cell line panel growth inhibition; format: cell-based
[13] = tested on: RXF-631 renal cancer cells; test: NCI human tumor cell line panel growth inhibition; format: cell-based
[14] = tested on: NCI-H23 lung cancer cells; test: NCI human tumor cell line panel growth inhibition; format: cell-based; conditions: read-out: Log10 GI50 (converted)
[15] = tested on: RXF-393 renal cancer cells; test: NCI human tumor cell line panel growth inhibition; format: cell-based; conditions: Homo sapiens, read-out: Log10 GI50 (converted)
DLD-1 colon cancer cells = test: NCI human tumor cell line panel growth inhibition; format: cell-based; conditions: Homo sapiens, read-out: Log10 GI50 (converted)
[16] = tested on: HCT-116 colon cancer cells; test: NCI human tumor cell line panel growth inhibition; format: cell-based
[17] = tested on: OVCAR-5 ovarian cancer cells; test: NCI human tumor cell line panel growth inhibition; format: cell-based
SNB-75 CNS cancer cells = test: NCI human tumor cell line panel growth inhibition; format: cell-based
[18] = Homo sapiens, read-out: Log10 GI50 (converted)

OCc1ccc(-c2ccc(-c3cccs3)s2)s1 [compound 637388]
GI50 [1]: 0.02 µg/mL (≈ 0.0718 µM)
GI50 [2]: 3 µg/mL (≈ 10.8 µM)

O=Cc1ccc(-c2ccc(-c3cccs3)s2)s1 [compound 637393]
GI50 [1]: 0.03 µg/mL (≈ 0.109 µM)
GI50 [2]: 0.2 µg/mL (≈ 0.724 µM)

O=Cc1ccc(-c2ccc(-c3ccc(C=O)s3)s2)s1 [compound 637394]
GI50 [1]: 0.01 µg/mL (≈ 0.0328 µM)
GI50 [2]: 0.2 µg/mL (≈ 0.657 µM)

O=Cc1ccc(-c2ccc(CO)s2)s1 [compound 647073]
GI50 [1]: 0.05 µg/mL (≈ 0.223 µM)
GI50 [2]: 0.08 µg/mL (≈ 0.357 µM)

OCc1ccc(-c2ccc(CO)s2)s1 [compound 647452]
GI50 [1]: 0.03 µg/mL (≈ 0.133 µM)
GI50 [2]: 0.6 µg/mL (≈ 2.65 µM)

O=Cc1ccc(-c2ccc(-c3ccc(CO)s3)s2)s1 [compound 647455]
GI50 [1]: 0.002 µg/mL (≈ 0.00653 µM)
GI50 [2]: 0.1 µg/mL (≈ 0.326 µM)
Tumor Volume ([3]; week 1): 0.0 mm^3
Number of Animals with Tumor ([3]; week 1): 0
Tumor Volume ([3]; week 1.5): 1.4 mm^3
Number of Animals with Tumor ([3]; week 1.5): 1
Tumor Volume ([3]; week 2): 5.2 mm^3
Number of Animals with Tumor ([3]; week 2): 3
Slope ([3]; week 3): 2.16 mm^3 /week
Tumor Growth Inhibition ([3]; week 3): 57%
Tumor Volume ([3]; week 3): 5.8 mm^3
Number of Animals with Tumor ([3]; week 3): 4
Slope ([3]; week 4): 1.75 mm^3 /week
Tumor Growth Inhibition ([3]; week 4): 60%
Tumor Volume ([3]; week 4): 5.6 mm^3
Number of Animals with Tumor ([3]; week 4): 4
Slope ([3]; week 5): 1.34 mm^3 /week
Tumor Growth Inhibition ([3]; week 5): 61%
Tumor Volume ([3]; week 5): 5.4 mm^3
Number of Animals with Tumor ([3]; week 5): 4
Slope ([3]; week 6): 1.60 mm^3 /week
Tumor Growth Inhibition ([3]; week 6): 45%
Tumor Volume ([3]; week 6): 10.6 mm^3
Number of Animals with Tumor ([3]; week 6): 5
Slope ([3]; week 8.6): 2.07 mm^3 /week
Tumor Growth Inhibition ([3]; week 8.6): 21%
Tumor Volume ([3]; week 8.6): 18.8 mm^3
Number of Animals with Tumor ([3]; week 8.6): 5

NCc1ccc(-c2ccc(-c3cccs3)s2)s1 [compound 652866]
GI50 [1]: 0.001 µg/mL (≈ 0.0036 µM)
GI50 [2]: 0.01 µg/mL (≈ 0.036 µM)

NCc1ccc(-c2ccc(-c3ccc(CO)s3)s2)s1 [compound 656898]
GI50 [1]: 0.02 µg/mL (≈ 0.065 µM)
GI50 [2]: 3 µg/mL (≈ 9.76 µM)

NCc1ccc(-c2ccc(-c3ccc(CN)s3)s2)s1 [compound 658110]
GI50 [1]: 4 µg/mL (≈ 13.1 µM)
GI50 [2]: 10 µg/mL (≈ 32.6 µM)

OCc1ccc(-c2ccc(-c3sccc3CO)s2)s1 [compound 658875]
GI50 [1]: 0.002 µg/mL (≈ 0.00648 µM)
GI50 [2]: 9.7 µg/mL (≈ 31.4 µM)

O=Cc1ccc(-c2ccc(-c3sccc3CO)s2)s1 [compound 658876]
GI50 [1]: 0.02 µg/mL (≈ 0.0653 µM)
GI50 [2]: 0.4 µg/mL (≈ 1.31 µM)

O=Cc1ccc(-c2ccc(-c3sccc3C=O)s2)s1 [compound 658877]
GI50 [1]: 0.03 µg/mL (≈ 0.0985 µM)
GI50 [2]: 0.6 µg/mL (≈ 1.97 µM)

OCc1csc(-c2ccc(-c3ccc(CO)s3)s2)c1 [compound 658878]
GI50 [1]: 0.002 µg/mL (≈ 0.00648 µM)
GI50 [2]: 8 µg/mL (≈ 25.9 µM)

O=Cc1ccc(-c2ccc(-c3cc(CO)cs3)s2)s1 [compound 658879]
GI50 [1]: 0.004 µg/mL (≈ 0.0131 µM)
GI50 [2]: 6.2 µg/mL (≈ 20.2 µM)

CC[N+](CC)(CC)Cc1ccc(-c2ccc(-c3cccs3)s2)s1 [compound 659561]
GI50 [1]: 2 µg/mL
GI50 [2]: 5 µg/mL

O=Cc1ccc(-c2ccc(-c3ccsc3)s2)s1 [compound 660643]
GI50 [1]: 0.005 µg/mL (≈ 0.0181 µM)
GI50 [2]: 2.4 µg/mL (≈ 8.68 µM)

OCc1ccc(-c2ccc(-c3ccsc3)s2)s1 [compound 660644]
GI50 [1]: 0.002 µg/mL (≈ 0.00718 µM)
GI50 [2]: 3.6 µg/mL (≈ 12.9 µM)

OCc1ccc(-c2ccc(-c3cccs3)s2)s1 [drawing 30]
GI50 [4, 18]: 42.7 nM
GI50 (UACC-257 melanoma cells; [18]): 102 nM
GI50 (UACC-62 melanoma cells; [18]): < 10 nM
GI50 (TK-10 renal cancer cells; [18]): 105 nM
GI50 [5, 18]: < 10 nM
GI50 (U251 CNS cancer cells; Homo sapiens, U-251, read-out: Log10 GI50 (converted)): 148 nM
GI50 [6, 18]: 490 nM
GI50 (A-498 renal cancer cells; Homo sapiens, A498, read-out: Log10 GI50 (converted)): < 10 nM
GI50 (SF-295 CNS cancer cells): 33900 nM
GI50 [7]: 912 nM
GI50 [8]: 36300 nM
GI50 (HOP-18 lung cancer cells): 22400 nM
GI50 (SNB-19 CNS cancer cells): 18600 nM
GI50 [9]: 29500 nM
GI50 [10, 18]: 27.5 nM
GI50 ([11]; Homo sapiens, KM-20L2, read-out: Log10 GI50 (converted)): 245 nM
GI50 [12, 18]: 117 nM
GI50 [13, 18]: 28.2 nM
GI50 [14]: 70800 nM
GI50 [15]: 31.6 nM
GI50 (DLD-1 colon cancer cells): 4470 nM
GI50 [16, 18]: 295 nM
GI50 [17, 18]: 224 nM

O=Cc1ccc(-c2ccc(-c3ccc(C=O)s3)s2)s1 [drawing 35]
Log10 GI50 [4]: -5.15 M
Log10 GI50 (UACC-257 melanoma cells): -5.72 M
Log10 GI50 (UACC-62 melanoma cells): -6.46 M
Log10 GI50 (TK-10 renal cancer cells): -5.29 M
Log10 GI50 [5]: -5.95 M
Log10 GI50 (U251 CNS cancer cells): -6.09 M
Log10 GI50 [6]: -5.62 M
Log10 GI50 (A-498 renal cancer cells): -5.93 M
Log10 GI50 [10]: -5.88 M
Log10 GI50 [11]: -4.39 M
Log10 GI50 (SNB-75 CNS cancer cells): -4.14 M
Log10 GI50 [12]: -5.76 M
Log10 GI50 [13]: -4.03 M
Log10 GI50 [16]: -4.74 M
Log10 GI50 [17]: -4.68 M
